Measured values published in US20230141101A1, “PDE4 INHIBITOR COMPOUND AND MEDICAL USE THEREOF” (Suzhou Longbotai Pharmaceuticals Co., Ltd., priority 2020, published 2023).

Key:
Type in all cases: biochemical
Conditions in all cases: 20 nM
[1] = target: T1, PDE4B1 (Homo sapiens, UniProt Q07343); assay: PDE4 inhibitory activity assay (FAM-cAMP enzymatic reaction), PDE4B1
T1 construct: purchased BPS 60041
Method in brief: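 Each isoform is incubated with test compound for 15 min at room temperature before FAM-cAMP substrate starts a 30-min reaction.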

[2] = target: T2, PDE4A1A (Homo sapiens, UniProt P27815); assay: PDE4 inhibitory activity assay (FAM-cAMP enzymatic reaction), PDE4A1A
T2 construct: purchased BPS 60040
T2 sequence (P27815 1-647 isoform P27815-4): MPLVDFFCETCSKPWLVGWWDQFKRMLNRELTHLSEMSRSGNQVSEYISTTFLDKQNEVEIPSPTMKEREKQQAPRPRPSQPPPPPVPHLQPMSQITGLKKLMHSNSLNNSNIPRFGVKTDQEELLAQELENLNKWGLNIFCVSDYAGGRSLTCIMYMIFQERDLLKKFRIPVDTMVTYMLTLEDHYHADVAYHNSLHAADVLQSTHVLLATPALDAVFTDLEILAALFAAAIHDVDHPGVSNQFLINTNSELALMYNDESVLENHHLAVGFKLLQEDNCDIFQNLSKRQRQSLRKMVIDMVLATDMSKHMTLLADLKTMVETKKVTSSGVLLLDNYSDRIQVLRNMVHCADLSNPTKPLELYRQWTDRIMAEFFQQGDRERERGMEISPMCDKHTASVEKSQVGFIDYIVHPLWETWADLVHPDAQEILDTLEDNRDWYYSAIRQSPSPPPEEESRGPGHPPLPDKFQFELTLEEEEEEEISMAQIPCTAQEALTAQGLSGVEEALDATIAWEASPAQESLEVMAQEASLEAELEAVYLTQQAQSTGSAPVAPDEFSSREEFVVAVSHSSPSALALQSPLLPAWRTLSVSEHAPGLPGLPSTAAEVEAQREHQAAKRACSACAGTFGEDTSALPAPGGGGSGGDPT
Method in brief: (§1)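 Read-out: fluorescence-based detection of FAM-cAMP turnover on a multilabel counter, with IC50 derived by fitting inhibition rates. The reaction ran 30 min at room temperature after a 15-min enzyme–compound preincubation, followed by stopping and 60 min further incubation.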

[3] = target: PDE4D2 (Homo sapiens, UniProt Q08499); assay: PDE4 inhibitory activity assay (FAM-cAMP enzymatic reaction), PDE4D2
PDE4D2, sequence (Q08499 303-809): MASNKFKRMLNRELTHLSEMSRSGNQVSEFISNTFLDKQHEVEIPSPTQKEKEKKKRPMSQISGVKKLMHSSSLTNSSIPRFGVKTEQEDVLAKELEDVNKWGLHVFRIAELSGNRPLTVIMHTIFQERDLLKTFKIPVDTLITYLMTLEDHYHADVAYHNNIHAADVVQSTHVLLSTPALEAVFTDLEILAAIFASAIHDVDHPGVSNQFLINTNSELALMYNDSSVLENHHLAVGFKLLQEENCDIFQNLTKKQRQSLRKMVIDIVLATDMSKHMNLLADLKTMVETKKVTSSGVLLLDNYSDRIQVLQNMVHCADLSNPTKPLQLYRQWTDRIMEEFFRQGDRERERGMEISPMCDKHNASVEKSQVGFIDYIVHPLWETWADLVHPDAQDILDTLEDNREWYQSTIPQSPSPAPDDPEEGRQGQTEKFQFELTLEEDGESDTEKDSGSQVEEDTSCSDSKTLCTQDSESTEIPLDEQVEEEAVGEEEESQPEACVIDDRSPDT
Method in brief: as §1

T1 sequence (Q07343 whole entry): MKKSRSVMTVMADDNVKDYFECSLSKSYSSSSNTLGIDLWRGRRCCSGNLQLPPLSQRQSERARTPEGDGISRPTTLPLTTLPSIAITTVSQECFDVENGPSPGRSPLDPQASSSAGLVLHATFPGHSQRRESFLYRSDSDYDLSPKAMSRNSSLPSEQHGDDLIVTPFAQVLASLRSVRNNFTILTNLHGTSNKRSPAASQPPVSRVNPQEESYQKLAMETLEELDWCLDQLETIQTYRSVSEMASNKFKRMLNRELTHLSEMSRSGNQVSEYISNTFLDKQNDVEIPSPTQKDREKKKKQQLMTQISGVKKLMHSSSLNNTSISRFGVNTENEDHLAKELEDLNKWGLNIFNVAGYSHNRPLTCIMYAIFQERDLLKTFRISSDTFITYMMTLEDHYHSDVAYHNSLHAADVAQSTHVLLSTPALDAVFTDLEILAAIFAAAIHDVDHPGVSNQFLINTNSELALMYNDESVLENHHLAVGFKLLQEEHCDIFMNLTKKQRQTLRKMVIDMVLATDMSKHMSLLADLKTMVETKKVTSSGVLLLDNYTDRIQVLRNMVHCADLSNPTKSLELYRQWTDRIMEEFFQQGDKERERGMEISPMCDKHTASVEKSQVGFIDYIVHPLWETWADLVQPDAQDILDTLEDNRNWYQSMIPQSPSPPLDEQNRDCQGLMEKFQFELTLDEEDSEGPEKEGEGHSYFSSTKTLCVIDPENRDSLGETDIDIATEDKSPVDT

Row | PDE4 B1 inhibitory effect at 20 nM [1] | PDE4 A1 inhibitory effect at 20 nM [2] | PDE4 D2 inhibitory effect at 20 nM [3] | Compound
1 | − | − | − | CCOc1nc([C@H](CS(C)(=O)=O)n2c(=O)[nH]c3c(C)c(-c4ccccc4)cnc32)ccc1OC [Ex. 5, (R)-3-(1-(6-ethoxy-5-methoxypyridin-2-yl)-2-(methylsulfonyl)ethyl)-7-methyl-6-phenyl-1H-imidazo[4,5-b]pyridin-2(3H)-one]
2 | + | + | + | CCOc1nc([C@@H](CS(C)(=O)=O)n2c(=O)n(C)c3cc(-c4ccc(F)cc4)cnc32)ccc1OC [Ex. 128, (S)-3-(1-(6-ethoxy-5-methoxypyridin-2-yl)-2-(methylsulfonyl)ethyl)-6-(4-fluorophenyl)-1-methyl-1H-imidazo[4,5-b]pyridin-2(3H)-one]
3 | + | + | + | CCOc1nc([C@@H](CS(C)(=O)=O)n2c(=O)n(C)c3cc(-c4ccc(C)cc4F)cnc32)ccc1OC [Ex. 116, (S)-6-(2-fluoro-4-methylphenyl)-3-(1-(6-ethoxy-5-methoxypyridin-2-yl)-2-(methylsulfonyl)ethyl)-1-methyl-1H-imidazo[4,5-b]pyridin-2(3H)-one]
4 | + | + | + | CCOc1nc([C@@H](CS(C)(=O)=O)n2c(=O)n(C)c3cc(-c4cc(C)ccc4C)cnc32)ccc1OC [Ex. 102, (S)-6-(2,5-dimethylphenyl)-3-(1-(6-ethoxy-5-methoxypyridin-2-yl)-2-(methylsulfonyl)ethyl)-1-methyl-1H-imidazo[4,5-b]pyridin-2(3H)-one]
5 | + | + | + | CCOc1nc([C@@H](CS(C)(=O)=O)n2c(=O)[nH]c3cc(-c4ccccc4C(F)(F)F)ccc32)ccc1OC [Ex. 146, (S)-1-(1-(6-ethoxy-5-methoxypyridin-2-yl)-2-(methylsulfonyl)ethyl)-5-(2-(trifluoromethyl)phenyl)-1H-benzo[d]imidazol-2(3H)-one]
6 | + | + | + | CCOc1nc([C@@H](CS(C)(=O)=O)n2c(=O)n(C)c3cc(-c4ccccn4)ccc32)ccc1OC [Ex. 196, (S)-1-(1-(6-ethoxy-5-methoxypyridin-2-yl)-2-(methylsulfonyl)ethyl)-3-methyl-5-(pyridin-2-yl)-1H-benzo[d]imidazol-2(3H)-one]
7 | − | − | − | CCOc1nc([C@H](CS(C)(=O)=O)n2c(=O)n(CC)c3c(C)c(-c4ccccc4)cnc32)ccc1OC [Ex. 47, (R)-3-(1-(6-ethoxy-5-methoxypyridin-2-yl)-2-(methylsulfonyl)ethyl)-1-ethyl-7-methyl-6-phenyl-1H-imidazo[4,5-b]pyridin-2(3H)-one]
8 | + | + | + | CCOc1nc([C@@H](CS(C)(=O)=O)n2c(=O)n(C)c3cc(-c4ccccc4CC)ccc32)ccc1OC [Ex. 151, (S)-1-(1-(6-ethoxy-5-methoxypyridin-2-yl)-2-(methylsulfonyl)ethyl)-5-(2-ethylphenyl)-3-methyl-1H-benzo[d]imidazol-2(3H)-one]
9 | + | + | = | CCOc1nc([C@@H](CS(C)(=O)=O)n2c(=O)[nH]c3c(C)c(-c4ccc(F)cc4)cnc32)ccc1OC [Ex. 6, (S)-3-(1-(6-ethoxy-5-methoxypyridin-2-yl)-2-(methylsulfonyl)ethyl)-6-(4-fluorophenyl)-7-methyl-1H-imidazo[4,5-b]pyridin-2(3H)-one]

Further lines, the compound ahead of its results:

Row | Compound | PDE4 B1 inhibitory effect at 20 nM [1] | PDE4 A1 inhibitory effect at 20 nM [2] | PDE4 D2 inhibitory effect at 20 nM [3]
10 | CCOc1nc([C@@H](CS(C)(=O)=O)n2c(=O)[nH]c3c(Cc4ccccc4F)cccc32)ccc1OC [Ex. 207, (S)-1-(1-(6-ethoxy-5-methoxypyridin-2-yl)-2-(methylsulfonyl)ethyl)-4-(2-fluorobenzyl)-1H-benzo[d]imidazol-2(3H)-one] | + | + | +
11 | CCOc1nc([C@@H](CS(C)(=O)=O)n2c(=O)[nH]c3c(C)c(-c4ccc(C)cc4F)cnc32)ccc1OC [Ex. 40, (S)-6-(2-fluoro-4-methylphenyl)-3-(1-(6-ethoxy-5-methoxypyridin-2-yl)-2-(methylsulfonyl)ethyl)-7-methyl-1H-imidazo[4,5-b]pyridin-2(3H)-one] | + | + | +
12 | CCOc1nc([C@@H](CS(C)(=O)=O)n2c(=O)[nH]c3c(C)c(-c4c(C)cccc4C)cnc32)ccc1OC [Ex. 34, (S)-6-(2,6-dimethylphenyl)-3-(1-(6-ethoxy-5-methoxypyridin-2-yl)-2-(methylsulfonyl)ethyl)-7-methyl-1H-imidazo[4,5-b]pyridin-2(3H)-one] | + | + | +
13 | CCOc1nc([C@@H](CS(C)(=O)=O)N2Cc3cccc(NC(C)=O)c3C2=O)ccc1OC [Ex. 215, (S)—N-(2-(1-(6-ethoxy-5-methoxypyridin-2-yl)-2-(methylsulfonyl)ethyl)-3-oxoisoindolin-4-yl)acetamide] | + | + | +
14 | CCOc1nc([C@@H](CS(C)(=O)=O)n2c(=O)n(C)c3cc(-c4ccc(F)cc4OC)ccc32)ccc1OC [Ex. 189, (S)-5-(4-fluoro-2-methoxyphenyl)-1-(1-(6-ethoxy-5-methoxypyridin-2-yl)-2-(methylsulfonyl)ethyl)-3-methyl-1H-benzo[d]imidazol-2(3H)-one] | + | + | +
15 | CCOc1nc([C@@H](CS(C)(=O)=O)n2c(=O)[nH]c3cc(-c4ccc(F)cc4C)cnc32)ccc1OC [Ex. 107, (S)-6-(4-fluoro-2-methylphenyl)-3-(1-(6-ethoxy-5-methoxypyridin-2-yl)-2-(methylsulfonyl)ethyl)-1H-imidazo[4,5-b]pyridin-2(3H)-one] | + | + | +
16 | CCOc1nc([C@@H](CS(C)(=O)=O)n2c(=O)[nH]c3cc(-c4ccccc4OC)cnc32)ccc1OC [Ex. 83, (S)-3-(1-(6-ethoxy-5-methoxypyridin-2-yl)-2-(methylsulfonyl)ethyl)-6-(2-methoxyphenyl)-1H-imidazo[4,5-b]pyridin-2(3H)-one] | + | + | +
17 | CCOc1nc([C@@H](CS(C)(=O)=O)n2c(=O)n(C)c3cc(-c4ccc(F)cc4OC)cnc32)ccc1OC [Ex. 120, (S)-6-(4-fluoro-2-methoxyphenyl)-3-(1-(6-ethoxy-5-methoxypyridin-2-yl)-2-(methylsulfonyl)ethyl)-1-methyl-1H-imidazo[4,5-b]pyridin-2(3H)-one] | + | + | +
